# Laboratory results as given in patent US9408393B2, “Bismuth-thiols as antiseptics for agricultural, industrial and other uses” (Microbion Corporation, priority 2010, dated 2016).
# Columns and labels:
# [1] = Uninoculated solubility control plate (drug precipitation in test media); format: physicochemical; details: uninoculated solubility control plates; BisEDT observation at 32 μg/mL
# S. epidermidis biofilm = experiment: Biofilm prevention concentration (BPC), BisEDT and antibiotics; format: cell-based, Staphylococcus epidermidis; details: regardless of antibiotic employed
# Method: S. epidermidis grown in TSB+2% glucose in polystyrene plates for 48 h at 37° C. Gatifloxacin (GF), clindamycin (CM), minocycline (MC), gentamicin (GM), vancomycin (VM), cefazolin (CZ), nafcillin (NC), and rifampicin (RP). […]
# S. aureus strains = experiment: In vitro inhibition from PMMA cement bead vehicle; format: cell-based, Staphylococcus aureus; details: with and without Tobramicin and Vancomycin
# S. aureus = experiment: Contaminated open fracture, rat femur critical defect model; format: in vivo; details: BT gel 5 mg/ml, 1 ml in defect, with Cefazolin 5 mgKg^−1 s.c. twice daily 3 days, day 14
# Excerpt: Standard errors of the mean are shown as error bars. Animals euthanized early are not excluded from the analysis, however samples from one animal in group 2 have been excluded due to gross contamination.
# The aim of this study was to determine whether BTs will reduce infection in a contaminated open fracture model either on their own or with antibiotics. The contaminated rat femur critical defect model is a well-accepted model and was used for the experiments described in this Example. This model offers a standardized model for comparing various possible treatments and their effects on reducing infection and/or improving healing.
# Three formulations of microparticulate BTs were produced in a clinically useful hydrogel gel form as described herein.
# Two treatment arms were used: in the first arm, BT was used singularly; in the second arm BT was used in conjunction with a systemic antibiotic (ABx).
# Six hours after inoculation with S. aureus, the wound was debrided, irrigated with saline and 1 ml of BT gel inserted within the defect.
# Six hours after inoculation with S. aureus, the wound was debrided, irrigated with saline and 1 ml of BT gel added inserted within the defect. The antibiotic used was Cefazolin at a dose equivalent to 5 mgKg^−1 delivered via sub-cutaneous injection twice daily for a total of 3-days following the injury. The first dose was administered immediately prior to debridement.
# Six hours after inoculation with S. aureus, the wound was debrided and irrigated with saline. The control animals were also treated with Cefazolin as per the regime described above.
# The procedure for the in vivo rat injury model was performed as described by Chen et al. (2002 J. Orthop. Res. 20:142; 2005 J. Orthop. Res. 23:816; 2006 J. Bone Joint Surg. Am. 88:1510; 2007 J. Orthop. Trauma 21:693). The rats were anesthetized and prepped for surgery. The anterolateral aspect of the femoral shaft was exposed through a 3-cm incision. The periosteum and attached muscle was stripped from the bone. A polyacetyl plate (27×4×4 mm) was placed on the anterolateral surface of the femur. The plates were predrilled to accept 0.9-mm diameter threaded Kirschner wires. The bases of these plates were formed to fit the contour of the femoral shaft. Pilot holes were drilled through both cortices of the femur using the plate as a template and threaded Kirschner wire was inserted through the plate and femur. The notches that were 6 mm apart on the plate served as a guide for bone removal. A small oscillating saw was used to create the defect while the tissue was cooled by continuous irrigation in an effort to prevent thermal damage.
# Several groups of 10 animals each were inoculated with 1×10^5 CFU of S. aureus and treated with BT alone or in combination with antibiotics 6 hours post-inoculation as described above. The groups were as follows: Bis-EDT gel; MB-11 gel; MB-8-2 gel; Bis-EDT gel & Abx; MB-11 gel & Abx; MB-8-2 gel & Abx; Control (Abx alone).
# Animals were euthanized 14 days after surgery and bone and hardware sent for microbiological analysis, the results of which are shown in FIG. 7.
# E. coli = experiment: Broth dilution MIC, BT-antibiotic combinations; format: cell-based; details: Escherichia coli; E. coli Ampicillin/Chloramphenicol resistant; antibiotic alone
# Method: Materials & Methods. Susceptibility studies were performed by broth dilution in 96-well tissue culture plates (Nalge Nunc International, Denmark) in accordance with NCCLS protocols (National Committee for Clinical Laboratory Standards. (1997). Methods for Dilution Antimicrobial Susceptibility Tests for Bacteria that Grow Aerobically: Approved Standard M7-A2 and Informational Supplement M100-S10. NCCLS, Wayne, Pa., USA).
# Briefly, overnight bacterial cultures were used to prepare 0.5 McFarland standard suspensions, which were further diluted 1:50 (˜2×10^6 cfu/mL) in cation-adjusted Mueller-Hinton broth medium (BBL, Cockeysville, Md., USA). […] Cultures were incubated for 24 h at 37° C. and turbidity was assessed by absorption at 630 nm using an ELISA plate reader (Biotek Instruments, Winooski, Vt., USA) according to the manufacturer's recommendations. […] Viable bacterial counts (cfu/mL) were determined by standard plating on nutrient agar.
# The checkerboard method was used to assess the activity of antimicrobial combinations. The fractional inhibitory concentration index (FICI) and the fractional bactericidal concentration index (FBCI) were calculated, according to Eliopoulos et al. (Eliopoulos and Moellering, (1996) Antimicrobial combinations. In Antibiotics in Laboratory Medicine (Lorian, V., Ed.), pp. 330-96, Williams and Wilkins, Baltimore, Md., USA). […]
# resistant E. coli = experiment: MIC in Mueller-Hinton II broth, antibiotic + BisEDT; format: cell-based, Escherichia coli; details: Escherichia coli, read-out: Drug + BE MIC, Chloramphenicol/Ampicillin resistant E. coli; BE 0.33 μg/ml
# Excerpt: Chloramphenicol and ampicillin resistant Escherichia coli were made sensitive to these drugs by the addition of subMIC BisEDT (Table 24).
# Tetracycline resistant Escherichia coli were made sensitive to doxycycline by the addition of subMIC BisEDT (Table 25).
# [2] = tested on: Enterococcus faecium (VSEfm, VREfm); experiment: microbe, parasite or virus in culture; format: cell-based; details: vancomycin-resistant Enterococcus faecium (VREfm)
# [3] = tested on: Staphylococcus aureus (SA, MRSA); experiment: Single-point BisEDT-antibiotic combination FICI; format: cell-based
# Enterococcus faecalis = experiment: Single-point BisEDT-antibiotic combination FICI; format: cell-based; details: E Fc 3121
# [4] = tested on: Streptococcus pneumoniae (SP, PRSP); experiment: Single-point BisEDT-antibiotic combination FICI; details: PRSP 5348
# [5] = neutral pH; cited from earlier work
# [6] = tested on: Staphylococcus aureus (MSSA, MRSA, CA-MRSA); experiment: microbe, parasite or virus in culture; format: cell-based
# Escherichia coli = experiment: Single-point BisEDT-antibiotic combination FICI; format: cell-based
# Klebsiella pneumoniae = experiment: Single-point BisEDT-antibiotic combination FICI; format: cell-based; details: KP 1231
# Pseudomonas aeruginosa = experiment: Single-point BisEDT-antibiotic combination FICI; format: cell-based; details: PA 1380
# Burkholderia cepacia = experiment: Single-point BisEDT-antibiotic combination FICI; format: cell-based; details: Bcep 1756
# Bukholderia multivorans = experiment: Single-point BisEDT-antibiotic combination FICI; format: cell-based; details: Bmult 5665
# Acinetobacter baumanii = experiment: Single-point BisEDT-antibiotic combination FICI; format: cell-based; details: Abau 2594
compound,measurement,setting,value
"C1C[S][Bi]([S]CC[S][Bi]2[S]CC[S]2)[S]1 [BisEDT, bismuth-1,2-ethanedithiol]",Solubility in MIC test media,[1],trace precipitate
same,Biofilm at 0.1 μg/ml BisEDT,S. epidermidis biofilm,no biofilm was detected
same,Effect on S. aureus strains in vitro from PMMA cement beads,S. aureus strains,inhibitory effects
same,"S. aureus infection detected on hardware, effect on Cefazolin activity",S. aureus,did not appear to affect Cefazolin activity
same,"S. aureus infection of injured bone, effect on Cefazolin activity",S. aureus,enhanced
"O=C(N[C@H](CO)[C@H](O)c1ccc([N+](=O)[O-])cc1)C(Cl)Cl [CM, chloramphenicol]",MIC,E. coli,220 µg/mL
same,MIC,resistant E. coli,12.7 µg/mL
CC(=O)NC[C@H]1CN(c2ccc(N3CCOCC3)c(F)c2)C(=O)O1 [Linezolid],MIC90,[2],2 µg/mL
same,"FICI, single-point BisEDT-antibiotic combination",[3]; MRSA 773,1.23
same,"FICI, single-point BisEDT-antibiotic combination",[3]; SA 100,1.23
same,"FICI, single-point BisEDT-antibiotic combination",Enterococcus faecalis,1.23
same,"FICI, single-point BisEDT-antibiotic combination",[4],1.11
Zinc pyrithione,Solubility in water,[5],8 ppm
C[C@@H](O)[C@H]1C(=O)N2C(C(=O)O)=C(SCCN=CN)C[C@H]12 [Imipenem],MIC90,[6]; MSSA clinical isolates,0.03 µg/mL
same,MIC,"[6]; S. aureus 29213, one value on a single run, one dilution below published QC range, read-out: MIC, quality control strain",0.008 µg/mL
same,"FICI, single-point BisEDT-antibiotic combination",[3]; MRSA 773,1.48
same,"FICI, single-point BisEDT-antibiotic combination",[3]; SA 100,0.67
same,"FICI, single-point BisEDT-antibiotic combination",Enterococcus faecalis,0.73
same,"FICI, single-point BisEDT-antibiotic combination",Escherichia coli; EC 102,1.11
same,"FICI, single-point BisEDT-antibiotic combination",Escherichia coli; EC 2232,1.29
same,"FICI, single-point BisEDT-antibiotic combination",Klebsiella pneumoniae,1.23
same,"FICI, single-point BisEDT-antibiotic combination",Pseudomonas aeruginosa,1.12
same,"FICI, single-point BisEDT-antibiotic combination",Burkholderia cepacia,0.73
same,"FICI, single-point BisEDT-antibiotic combination",Bukholderia multivorans,1.23
same,"FICI, single-point BisEDT-antibiotic combination",Acinetobacter baumanii,0.81
same,"FICI, single-point BisEDT-antibiotic combination",[4],0.43
